Tested on: Felis catus
Experiment: Reduction in infarct volume in cat at 0.5 mg/kg administered as bolus dose at 15 mins before middle cerebral artery occlusion followed by infusion of 0.14 mg/kg/hr measured after 6 hrs
Format: functional
Set-up: scale not given: the % may be the effect or the level left

`C[C@]12N[C@H](Cc3ccccc31)c1ccccc12.O=C(O)/C=C/C(=O)O` showed an Activity of 75%.

— ChEMBL document CHEMBL4325898, “Recent advances in the development of neuroprotective agents and therapeutic targets in the treatment of cerebral ischemia” (Eur J Med Chem, 2019)
